Data reported in patent publication US11969448B2, “Method for improving an effect of chemotherapeutic drug of gemcitabine on inhibiting pancreatic cancer and improving side effect of chemotherapeutic drug of Gemcitabine” (GENMONT BIOTECH INC., priority 2020, dated 2024).

Key:
[1] = test system: BXPC-3 pancreatic cancer cells; test: MTT test, Experiment 2: BXPC-3 cells treated with probiotic lysates combined with Gemcitabine; assay type: cell-based; details: Gemcitabine 10 ng/mL alone; cultured 0 to 6 days; FIG. 7A
Method: 2500 BXPC-3 pancreatic cancer cells were seeded into each well of a 96-well plate, and the 96-well plate was incubated at 37° C. overnight. After the old cell culture medium was aspirated, the fresh culture medium containing the lysate of the Lactobacillus reuteri GMNL-89, the lysate of the Lactobacillus paracasei GMNL-133 (25 ug/mL of concentration), or the lysate of the Lactobacillus reuteri GMNL-89 and the Lactobacillus paracasei GMNL-133 (i.e., the probiotic composition of the present disclosure) were respectively mixed with the fresh culture medium containing the chemotherapeutic drug of Gemcitabine (10 ng/mL of concentration) to be added to the BXPC-3 pancreatic cancer cells. Then, the BXPC-3 pancreatic cancer cells were cultured for 0 to 6 days. At different time points, based on day 0, the cell viability rate was determined by the MTT test, and the cell viability rate at different time points was calculated.

[2] = test system: Caerulein-treated LSL-KrasG12D/−-Pdx-1-Cre (KC) gene transgenic mice (pancreatic intraepithelial neoplasia lesions); test: Histological staining (H&E, vimentin and Ki67 immunohistochemistry) of the pancreas in the mouse model of pancreatic cancer; assay type: in vivo; details: FIG. 3
Description: After the mice were sacrificed, the pancreas tissue was collected, fixed with formalin solution (TONYAR biotech. Inc., Taiwan), embedded in paraffin, tissue sectioned, and then subjected to H&E staining and immunohistochemical staining. […]

[3] = Side effects of Gemcitabine: body and muscle weight, serum biochemical and blood cell analysis in KC mice; assay type: in vivo
Description: In the experiment, a 12-week-old LSL-Kras^G12D/−-Pdx-1-Cre (KC) gene transgenic mouse was used to simulate a mouse model of pancreatic cancer. The national laboratory animal center of National Applied Research Laboratories was entrusted to introduce the experimental animals from the Frederick National Laboratory for cancer research, and then conduct breeding, reproducing and embryo freezing, and then the experimental animals are bred in the animal center attached to Chung Shan Medical University in Taichung. The environment for feeding animals is controlled at a room temperature (20 to 23° C.) and in a humidity of 50 to 60%, and the light cycles of day and night are maintained for 12 hours respectively. Experimental animals are allowed to eat and drink freely. All animal experiment procedures were carried out in accordance with the protocol approved by institutional animal care and use committee (IACUC) of Chung Shan Medical University.
In order to induce acute pancreatitis in mice, Caerulein (25 μg/kg/h) were injected into the abdominal cavity of the mice by intraperitoneal (IP) injection every 7 hours 3 days before and 1 day before the experiment. The experimental mice were was divided into 4 groups. The chemotherapeutic drug of Gemcitabine was given with different concentrations (20, 50, 100, 200 mg/kg of body weight), and was administered by intraperitoneal injection for 4 consecutive weeks, once every 3 days, 10 times in total.
Two strains of the Lactobacillus paracasei GMNL-133 and the Lactobacillus reuteri GMNL-89 were used in the experiment, respectively with the ratio of 1:0.1 (1.64×10^7 CFU/0.02 kg of body weight: 1.64×10^6 CFU/0.02 kg of body weight) and the ratio of 1:1 (1.64×10^7 CFU/0.02 kg of body weight: 1.64×10^7 CFU/0.02 kg of body weight). The dosage used is based on that 12.3 times the recommended daily intake per kilogram of body weight for humans is 1 time the dose for mice. The probiotic composition was fed into the stomach of the mice by tube feeding, 5 days a week, once a day, 0.2 mL each time.
In order to study the adverse effects of the Caerulein, the chemotherapeutic drug of the Gemcitabine, and probiotic composition on serum biochemistry and blood cells, blood was collected after cardiac puncture in anesthetized mice, and the blood was immediately sent to Axel Biotechnology Inc. (Taichung) to perform blood tests and serum biochemical analysis.

[4] = test system: advanced pancreatic cancer; details: first-line chemotherapy for advanced pancreatic cancer; background statement; cited from earlier work
[5] = Gemcitabine 20, 50, 100, 200 mg/kg IP alone, compared with untreated mice
[6] = Caerulein-treated KC mice, Gemcitabine 200 mg/kg alone

Nc1ccn([C@@H]2O[C@H](CO)[C@@H](O)C2(F)F)c(=O)n1 [Gemcitabine]
cell viability rate (time of lowest value) [1]: reached the lowest on the sixth day
death of BXPC-3 pancreatic cancer cells (onset) [1]: caused the death of the BXPC-3 pancreatic cancer cells from the second day
tissue staining results at the two high doses ([2]; Gemcitabine 100 mg/kg and 200 mg/kg): excellent results
expressions of the vimentin and the cell proliferation marker of Ki67 [2, 5]: also lower
pancreatic intraepithelial neoplasia lesion grades (H&E staining) [2, 5]: lower than those of the untreated mice
ALT [3, 6]: 60 U/L
AST [3, 6]: 351 U/L
Body weight [3, 6]: 21.10 ± 1.44 g
Gastrocnemius muscle weight [3, 6]: 0.13 ± 0.00 g
Platelets [3, 6]: 1222.00 K/μL
Red blood cell [3, 6]: 8.70 M/μL
White blood cell [3, 6]: 3.04 K/μL
body weight and muscle (gastrocnemius) weight ([3]; KC mice treated with Caerulein (25 μg/kg), Gemcitabine alone): lose weight and muscle (gastrocnemius) weight significantly
liver function index of AST and ALT ([3]; KC mice treated with Caerulein (25 μg/kg), only Gemcitabine): prone to elevate
5-year survival rate of patients [4]: 30%
